In patent US5198441A, “Derivatives of 1,2-dihydro 2-oxo quinoxalines, their preparation and their use in therapy” (Pierre Fabre Medicament, priority 1989, dated 1993):
Values after ≈ are worked out from the molar mass of the structure shown.

Legend:
[1] = system: trachea contractions caused by leucotriene D4; assay: Antagonism of the effect of leucotriene D4 (contraction of isolated guinea pig trachea); conditions: Cavia porcellus, 5 min, leucotriene D4 potassium salt 0.05 μg/ml, 5 minutes contact; for inhibition at 10 µg/mL: 10 μg/ml, percentage variation in the amplitude of the contraction
Description: (§1) The compounds of the invention were subjected to pharmacological tests which have shown their interest as broncholytics. For this purpose, the compounds were studied for their effect against contractions caused by various products in accordance with the following protocol.
(§2) A piece of the trachea of a male tri-color guinea pig of an average weight of 400 g is cut in a spiral and mounted (about 2.5 cm) in an isolated organ cell maintained thermostatically at 37° C. and filled with oxygenated tyrode. The isometric contractions caused by the different mediators are recorded by means of a Gould Statham UC2 detector (Gould Inc. Oxnard, Calif., USA) or UF1 Palmer Bioscience detector connected to a potentiometric recorder (Linseiss, Selb, Federal Republic of Germany). At the start of the experiment, the piece of trachea was placed under a tension of 1 g and set aside for one hour.
(§3) The following mediator concentrations are used (concentrations generally causing maximum contraction): histamine dihydrochloride, 10 μg/ml; acetylcholine chloride, 1 μg/ml; potassium salt of leucotrine D4, 0.05 μg/ml; potassium chloride, 1850 μg/ml. The concentrations of agents used produce contractions which become maximum within 5 to 15 minutes, depending on the mediators, and then remain at that level. One concentration of the product studied is administered for each contraction,and the product is left in contact with the trachea for 5 minutes. The inhibition, if any, obtained at the end of this time is measured (percentage variation in the amplitude of the contraction). The trachea is then washed for 15 seconds and set aside for about 10 minutes (time necessary to return to the base tone) before causing a new contraction.
(§4) The water-insoluble products are diluted in 0.178% (v/v) (final concentration in the bath) of dimethyl sulfoxide (DMSO).
(§5) The 50% inhibitory concentrations (IC 50) are calculated using an SAS program (Statistical Analysis System) based on Bliss and Cattel (Bliss C.I. and Cattel McK. Biological Assay Ann. Rev. Physiol. 5, 479, 1943).

[2] = system: trachea contractions caused by histamine; assay: Antagonism of the effect of histamine (contraction of isolated guinea pig trachea); conditions: Cavia porcellus, 5 min; histamine dihydrochloride 10 μg/ml; 5 minutes contact; 37° C.
Description: as §1, §2, §3, §4, §5

[3] = system: trachea contractions caused by acetylcholine; assay: Antagonism of the effect of acetylcholine (contraction of isolated guinea pig trachea); conditions: Cavia porcellus, 5 min; acetylcholine chloride 1 μg/ml; 5 minutes contact; 37° C.
Description: as §1, §2, §3, §4, §5

[4] = system: trachea contractions caused by potassium chloride; assay: Antagonism of the effect of potassium chloride (contraction of isolated guinea pig trachea); conditions: Cavia porcellus, 5 min; potassium chloride 1850 μg/ml; 5 minutes contact; 37° C.
Description: as §1, §2, §3, §4, §5

SMILES | IC50 [2] | IC50 [3] | IC50 [4] | IC50 ([1]; 37° C.) | inhibition at 10 µg/mL [1]
Cn1c(=O)c2[nH]cnc2n(C)c1=O [theophylline, reference compound] | 11.5 µg/mL (≈ 63.8 µM) | 65 µg/mL (≈ 361 µM) | 21 µg/mL (≈ 117 µM) | 13.5 µg/mL | 
C=CCn1c(=O)c(CCCO)nc2ccccc21 [Compound 8] |  |  | 12.3 µg/mL (≈ 50.3 µM) |  | 
CC=CCn1c(=O)c(CCCO)nc2ccccc21 [Compound 12] | 0.54 µg/mL (≈ 2.09 µM) | 15.5 µg/mL (≈ 60 µM) | 6.2 µg/mL (≈ 24 µM) |  | -71%
CC(C)=CCn1c(=O)c(CCCO)nc2ccccc21 [Compound 1, 1-prenyl 3-(3-hydroxypropyl) 1,2-dihydro 2-oxo quinoxaline] | 0.9 µg/mL (≈ 3.3 µM) | 25.5 µg/mL (≈ 93.6 µM) | 5.6 µg/mL (≈ 20.6 µM) |  | -71%
CCCn1c(=O)c(CCCOC(=O)NC)nc2ccccc21 [Compound 3, 1-propyl 3-(3-methylcarbamoyloxypropyl) 1,2-dihydro 2-oxo quinoxaline] | 3.3 µg/mL (≈ 10.9 µM) | 7.1 µg/mL (≈ 23.4 µM) |  |  | 
O=c1c(CCCO)nc2ccccc2n1CC1CC1 [Compound 15] |  |  |  |  | -64%
C=CCn1c(=O)c(CCCO)nc2ccc(Cl)cc21 [Compound 5] |  |  | 17 µg/mL (≈ 61 µM) |  | 

The next lines start with results.

IC50 [2] | IC50 [3] | IC50 [4] | SMILES | IC50 ([1]; 37° C.) | inhibition at 10 µg/mL [1]
0.43 µg/mL (≈ 1.46 µM) |  |  | O=c1c(CCCO)nc2ccccc2n1Cc1ccccc1 [Compound 17] |  | 
1.13 µg/mL (≈ 4.15 µM) | 16.5 µg/mL (≈ 60.6 µM) |  | CC=CCn1c(=O)c(CCC(C)O)nc2ccccc21 (stereo not drawn) [Compound 19] |  | 
1.3 µg/mL (≈ 3.84 µM) |  |  | COc1ccc(Cn2c(=O)c(CCC(C)O)nc3ccccc32)cc1 (stereo not drawn) [Compound 24] |  | 
1.55 µg/mL (≈ 5.41 µM) | 9.7 µg/mL (≈ 33.9 µM) |  | CC(C)=CCn1c(=O)c(CCC(C)O)nc2ccccc21 (stereo not drawn) [Compound 20] |  | 
3.45 µg/mL (≈ 14 µM) |  |  | CCCn1c(=O)c(CCCO)nc2ccccc21 [Compound 11] |  | 
